Experimental data as given in patent publication US8283367B2, “Proteasome inhibitors and methods of using the same” (Cephalon, Inc., priority 2005, dated 2012).

SMILES | melting point [°C]
CC(C)C[C@H](NC(=O)[C@@H](NC(=O)c1cncc(-c2ccccc2)c1)[C@@H](C)O)B1O[C@@H]2C[C@@H]3C[C@@H](C3(C)C)[C@]2(C)O1 [H.2.6, 5-Phenyl-pyridine-3-carboxamide, N-[(1S,2R)-1-[[[(1R)-1-[(3aS,4S,6S,7aR)-hexahydro-3a,5,5-trimethyl-4,6-methano-1,3,2-benzodioxaborol-2-yl]-3-methylbutyl]amino]carbonyl]-2-hydroxypropyl]] | 135 to 140
CC(C)C[C@H](NC(=O)[C@@H](NC(=O)c1ccc(-c2ccccc2)cn1)[C@@H](C)O)B(O)O [K.2.7, Boronic acid, [(1R)-1-[[(2S,3R)-3-hydroxy-2-[(5-phenyl-pyridine-2-carbonyl)amino]-1-oxobutyl]amino]-3-methylbutyl]] | 190 to 195
CC(C)C[C@H](NC(=O)[C@@H](NC(=O)c1cc(-c2ccccc2)n[nH]1)[C@@H](C)O)B(O)O [K.2.13, Boronic acid, [(1R)-1-[[(2S,3R)-3-hydroxy-2-[(5-phenyl-2H-pyrazole-3-carbonyl)amino]-1-oxobutyl]amino]-3-methylbutyl]] | 232 to 236
Cc1ccc(C(=O)NC[C@H](NC(=O)c2cccc(-c3cccs3)n2)C(=O)N[C@@H](CC(C)C)B(O)O)cc1 [L.2.21] | 158 to 160
Cc1ccc(C(=O)NC[C@H](NC(=O)c2ccc3ccccc3n2)C(=O)N[C@@H](CC(C)C)B(O)O)cc1 [L.2.5, Boronic acid, [(1R)-1-[[(2 S)-3-[(4-methylbenzoyl)amino]-2-[(quinoline-2-carbonyl)amino]-1-oxopropyl]amino]-3-methylbutyl]] | 235 to 237
Cc1ccc(C(=O)NC[C@H](NC(=O)c2cccnc2)C(=O)N[C@@H](CC(C)C)B(O)O)cc1 [L.2.4, Boronic acid, [(1R)-1-[[(2 S)-3-[(4-methylbenzoyl)amino]-2-[(pyridine-3-carbonyl)amino]-1-oxopropyl]amino]-3-methyibutyl]] | 220 to 222
